Values of other authors as cited in patent US20060003984A1, “Monobactam compositions and methods of use thereof” (Chiron Corporation, priority 2001, published 2006).

Tested on: Gram-negative bacteria
Conditions: many Gram-negative bacteria

NC[C@H]1O[C@H](O[C@H]2[C@H](O)[C@@H](O[C@H]3O[C@H](CO)[C@@H](O)[C@H](N)[C@H]3O)[C@H](N)C[C@@H]2N)[C@H](N)C[C@@H]1O [tobramycin]
concentration effective in inhibiting growth: < 4 µg/mL
